Test results: patent US20080039410A1, “Inositol 1,4,5-Trisphosphate Receptor Mutants and Uses Thereof” (priority 2004, published 2008)

Test system: S2− InsP3R-1
Assay: Flash photolysis of caged InsP3 (ci-IP3/PM), Fluo-4, Dt-40 3ko cells expressing S2− InsP3R-1 constructs
Assay type: cell-based, rat
Protocol: Transfected cells were simultaneously loaded with the visible wavelength indicator Fluo-4 and a cell-permeable form of caged inositol trisphosphate (ci-IP3/PM) for 30 min. ci-IP3/PM is a homologue of cm-IP3/PM. The 2- and 3-hydroxyls of the inositol ring are protected by an isopropylidene group in ci-IP3/PM and are protected by a methoxymethylene group in cm-IP3/PM (45). Like cm-IP3/PM, ci- IP3/PM diffuses across cell membranes, and the PM group is hydrolyzed by cellular esterases, and Ca^2+ release can be induced upon photouncaging as i-IP3 is liberated from the cage and acts in a similar fashion to InSP3 at InsP3R^2. A further period of 30 min was allowed for de-esterification of both dye and cage. Cells were illuminated at 488±10 nm and fluorescence collected through a 525±25-nm bandpass filter and captured using the Till Photonics imaging suite. […] Photolytic release was performed as described previously by using a pulsed xenon arc lamp (Till Photonics). A high intensity (0.5-5 ms duration; 80 J) discharge of UV light (360±7.5 nm) was reflected onto the plane of focus by using a DM400 dichroic mirror and Nikon 40× oil immersion objective, 1.3 NA.
To investigate the consequences of InsP3R-1 phosphorylation, the Ca^2+ release properties of phosphomimetic mutations in the functionally important sites in both S2+ and S2− InsP3R-1 was analyzed in Dt-40 3ko cells. This cell line provides the only known InsP3R null background (42, 43). In initial experiments, a comparison was made between the sensitivity of Ca^2+ release by InsP3R-1 phosphomimetic mutations versus nonphosphorylatable alanine mutations at the sites. Dt-40 3ko cells were transfected with DNA encoding HcRed to facilitate identification of transfected cells and either S2− S1589E/S1755E InsP3R-1 (S2−EE) or S2− S1589A/S1755A (S2−AA). Ca^2+ release was monitored following flash photolysis of ci-IP3, a cell-permeable form of caged InSP3. This experimental paradigm provides a relatively direct assessment of the effects of InsP3R-1 phosphorylation on the Ca^2+ release process. […]

S2− InsP3R-1, sequence (P29994 1-604 limits assumed): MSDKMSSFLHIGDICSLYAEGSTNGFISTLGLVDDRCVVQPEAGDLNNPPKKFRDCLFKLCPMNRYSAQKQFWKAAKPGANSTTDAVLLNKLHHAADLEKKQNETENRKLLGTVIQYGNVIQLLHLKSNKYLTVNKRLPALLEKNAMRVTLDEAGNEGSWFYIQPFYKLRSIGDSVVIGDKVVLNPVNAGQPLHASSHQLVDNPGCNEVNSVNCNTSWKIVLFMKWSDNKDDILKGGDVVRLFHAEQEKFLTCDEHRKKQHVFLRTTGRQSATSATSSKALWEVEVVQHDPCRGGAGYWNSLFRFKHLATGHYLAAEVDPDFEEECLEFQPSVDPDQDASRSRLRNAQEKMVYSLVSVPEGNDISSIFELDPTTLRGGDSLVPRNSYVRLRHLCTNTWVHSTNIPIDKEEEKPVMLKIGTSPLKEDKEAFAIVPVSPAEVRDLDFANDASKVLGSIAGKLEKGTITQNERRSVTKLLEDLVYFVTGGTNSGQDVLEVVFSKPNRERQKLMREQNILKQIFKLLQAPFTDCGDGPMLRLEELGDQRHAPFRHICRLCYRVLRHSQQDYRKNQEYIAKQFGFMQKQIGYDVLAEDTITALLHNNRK

## S2−EE: phosphomimetic S1589E/S1755E mutant of the short splice variant
0.5 ms UV discharge
  cells showing Ca^2+ release (>0.05% ΔF/F): ~60%
1.25 ms UV flash
  cells showing Ca^2+ release: all cells
UV flash 0.5-5 ms
  response to photolysis of ci-IP3 versus nonphosphorylatable mutant: lower threshold of UV light exposure
